# What was measured:
# [1] = ionic strengths 0.01 to 1, 25 and 37° C.; cited from earlier work
# [2] = test system: BT-549; test: NCI 60 cell line panel, single dose; type: cell-based; conditions: Breast Cancer, BT-549, single dose
# Excerpt: (§1) This complex performed at a similar level compared to individual tests for copper(II) sulfate as well as quinine sulfate (NSC).
# [3] = test system: T-47D; test: NCI 60 cell line panel, single dose; type: cell-based; conditions: Breast Cancer
# Excerpt: as §1
# [4] = test system: MOLT-4; test: NCI 60 cell line panel, single dose; type: cell-based; conditions: Leukemia, MOLT-4, single dose
# Excerpt: as §1
# [5] = test system: MCF7; test: NCI 60 cell line panel, single dose; type: cell-based; conditions: Breast Cancer
# Excerpt: as §1
# [6] = test system: HCT-15; test: NCI 60 cell line panel, single dose; type: cell-based; conditions: Colon Cancer, HCT-15, single dose
# Excerpt: as §1
# [7] = test system: NCI/ADR-RES; test: NCI 60 cell line panel, single dose; type: cell-based; conditions: Ovarian Cancer
# Excerpt: as §1
# [8] = test system: CCRF-CEM; test: NCI 60 cell line panel, single dose; type: cell-based; conditions: Leukemia
# Excerpt: as §1
# [9] = test system: RPMI-8226; test: NCI 60 cell line panel, single dose; type: cell-based; conditions: Leukemia, RPMI-8226, single dose
# Excerpt: as §1
# [10] = test system: ACHN; test: NCI 60 cell line panel, single dose; type: cell-based; conditions: Renal Cancer
# Excerpt: as §1
# [11] = test system: M14; test: NCI 60 cell line panel, single dose; type: cell-based; conditions: Melanoma
# Excerpt: as §1
# [12] = test system: HOP-62; test: NCI 60 cell line panel, single dose; type: cell-based; conditions: Non-Small Cell Lung Cancer, HOP-62, single dose
# Excerpt: as §1
# [13] = test system: OVCAR-4; test: NCI 60 cell line panel, single dose; type: cell-based; conditions: Ovarian Cancer, OVCAR-4, single dose
# Excerpt: as §1
# [14] = test system: RXF 393; test: NCI 60 cell line panel, single dose; type: cell-based; conditions: Renal Cancer, RXF 393, single dose
# Excerpt: as §1
# [15] = test system: A549/ATCC; test: NCI 60 cell line panel, single dose; type: cell-based; conditions: Non-Small Cell Lung Cancer
# Excerpt: as §1
# [16] = test system: OVCAR-8; test: NCI 60 cell line panel, single dose; type: cell-based; conditions: Ovarian Cancer, OVCAR-8, single dose
# Excerpt: as §1
# [17] = test system: CAKI-1; test: NCI 60 cell line panel, single dose; type: cell-based; conditions: Renal Cancer, CAKI-1, single dose
# Excerpt: as §1
# [18] = test system: KM12; test: NCI 60 cell line panel, single dose; type: cell-based; conditions: Colon Cancer
# Excerpt: as §1
# [19] = test system: HS 578T; test: NCI 60 cell line panel, single dose; type: cell-based; conditions: Breast Cancer
# Excerpt: as §1
# [20] = test system: NCI-H322M; test: NCI 60 cell line panel, single dose; type: cell-based; conditions: Non-Small Cell Lung Cancer
# Excerpt: as §1
# [21] = test system: SW-620; test: NCI 60 cell line panel, single dose; type: cell-based; conditions: Colon Cancer, SW-620, single dose
# Excerpt: as §1
# [22] = test system: SK-OV-3; test: NCI 60 cell line panel, single dose; type: cell-based; conditions: Ovarian Cancer, SK-OV-3, single dose
# Excerpt: as §1
# [23] = test system: EKVX; test: NCI 60 cell line panel, single dose; type: cell-based; conditions: Non-Small Cell Lung Cancer
# Excerpt: as §1
# [24] = test system: MDA-MB-231/ATCC; test: NCI 60 cell line panel, single dose; type: cell-based; conditions: Breast Cancer
# Excerpt: as §1
# [25] = test system: SR; test: NCI 60 cell line panel, single dose; type: cell-based; conditions: Leukemia
# Excerpt: as §1
# [26] = test system: HT29; test: NCI 60 cell line panel, single dose; type: cell-based; conditions: Colon Cancer
# Excerpt: as §1
# [27] = test system: NCI-H226; test: NCI 60 cell line panel, single dose; type: cell-based; conditions: Non-Small Cell Lung Cancer
# Excerpt: as §1
# [28] = test system: 786-0; test: NCI 60 cell line panel, single dose; type: cell-based; conditions: Renal Cancer, 786-0, single dose
# Excerpt: as §1
# [29] = test system: OVCAR-3; test: NCI 60 cell line panel, single dose; type: cell-based; conditions: Ovarian Cancer, OVCAR-3, single dose
# Excerpt: as §1
# [30] = test system: LOX IMVI; test: NCI 60 cell line panel, single dose; type: cell-based; conditions: Melanoma
# Excerpt: as §1
# [31] = test system: MDA-MB-435; test: NCI 60 cell line panel, single dose; type: cell-based; conditions: Melanoma, MDA-MB-435, single dose
# Excerpt: as §1
# [32] = test system: UACC-62; test: NCI 60 cell line panel, single dose; type: cell-based; conditions: Melanoma, UACC-62, single dose
# Excerpt: as §1
# [33] = test system: SK-MEL-28; test: NCI 60 cell line panel, single dose; type: cell-based; conditions: Melanoma, SK-MEL-28, single dose
# Excerpt: as §1
# [34] = test system: UACC-257; test: NCI 60 cell line panel, single dose; type: cell-based; conditions: Melanoma, UACC-257, single dose
# Excerpt: as §1
# [35] = test system: UO-31; test: NCI 60 cell line panel, single dose; type: cell-based; conditions: Renal Cancer, UO-31, single dose
# Excerpt: as §1
# [36] = test system: HL-60(TB); test: NCI 60 cell line panel, single dose; type: cell-based; conditions: Leukemia
# Excerpt: as §1
# [37] = test system: MDA-MB-468; test: NCI 60 cell line panel, single dose; type: cell-based; conditions: Breast Cancer, MDA-MB-468, single dose
# Excerpt: as §1
# [38] = test system: IGROV1; test: NCI 60 cell line panel, single dose; type: cell-based; conditions: Ovarian Cancer
# Excerpt: as §1
# [39] = test system: HCT-116; test: NCI 60 cell line panel, single dose; type: cell-based; conditions: Colon Cancer, HCT-116, single dose
# Excerpt: as §1
# [40] = test system: SN12C; test: NCI 60 cell line panel, single dose; type: cell-based; conditions: Renal Cancer
# Excerpt: as §1
# [41] = test system: SK-MEL-2; test: NCI 60 cell line panel, single dose; type: cell-based; conditions: Melanoma, SK-MEL-2, single dose
# Excerpt: as §1
# [42] = test system: NCI-H23; test: NCI 60 cell line panel, single dose; type: cell-based; conditions: Non-Small Cell Lung Cancer
# Excerpt: as §1
# [43] = test system: MALME-3M; test: NCI 60 cell line panel, single dose; type: cell-based; conditions: Melanoma
# Excerpt: as §1
# [44] = test system: HOP-92; test: NCI 60 cell line panel, single dose; type: cell-based; conditions: Non-Small Cell Lung Cancer, HOP-92, single dose
# Excerpt: as §1
# [45] = test system: HCC-2998; test: NCI 60 cell line panel, single dose; type: cell-based; conditions: Colon Cancer, HCC-2998, single dose
# Excerpt: as §1
# [46] = test system: DU-145; test: NCI 60 cell line panel, single dose; type: cell-based; conditions: Prostate Cancer, DU-145, single dose
# Excerpt: as §1
# [47] = test system: NCI-H460; test: NCI 60 cell line panel, single dose; type: cell-based; conditions: Non-Small Cell Lung Cancer
# Excerpt: as §1
# [48] = test system: TK-10; test: NCI 60 cell line panel, single dose; type: cell-based; conditions: Renal Cancer, TK-10, single dose
# Excerpt: as §1
# [49] = test system: NCI-H522; test: NCI 60 cell line panel, single dose; type: cell-based; conditions: Non-Small Cell Lung Cancer
# Excerpt: as §1
# [50] = test system: COLO 205; test: NCI 60 cell line panel, single dose; type: cell-based; conditions: Colon Cancer, COLO 205, single dose
# Excerpt: as §1
# [51] = test system: OVCAR-5; test: NCI 60 cell line panel, single dose; type: cell-based; conditions: Ovarian Cancer, OVCAR-5, single dose
# Excerpt: as §1
# [52] = test system: SF-268; test: NCI 60 cell line panel, single dose; type: cell-based; conditions: CNS Cancer, SF-268, single dose
# [53] = test system: SF-539; test: NCI 60 cell line panel, single dose; type: cell-based; conditions: CNS Cancer, SF-539, single dose
# [54] = test system: SF-295; test: NCI 60 cell line panel, single dose; type: cell-based; conditions: CNS Cancer, SF-295, single dose
# [55] = test system: SNB-75; test: NCI 60 cell line panel, single dose; type: cell-based; conditions: CNS Cancer, SNB-75, single dose
# [56] = test system: U251; test: NCI 60 cell line panel, single dose; type: cell-based; conditions: CNS Cancer
# [57] = test system: SNB-19; test: NCI 60 cell line panel, single dose; type: cell-based; conditions: CNS Cancer, SNB-19, single dose
molecule,measurement,setting,value
C=C[C@H]1C[N@@]2CC[C@H]1C[C@H]2[C@H](O)c1ccnc2ccc(OC)cc12 [Quinine],pKa1,[1],approximately 4.2
same,pKa2,[1],8.5
copper(II)-(quinine)2^+ [CuQ2],Growth Percent,[2],107.4%
same,Growth Percent,[3],100.1%
same,Growth Percent,[4],96.49%
same,Growth Percent,[5],84.97%
same,Growth Percent,[6],98.35%
same,Growth Percent,[7],105%
same,Growth Percent,[8],100.1%
same,Growth Percent,[9],105.8%
same,Growth Percent,[10],100.6%
same,Growth Percent,[11],101.1%
same,Growth Percent,[12],132.7%
same,Growth Percent,[13],110.4%
same,Growth Percent,[14],139.9%
same,Growth Percent,[15],88.43%
same,Growth Percent,[16],103.8%
same,Growth Percent,[17],109.9%
same,Growth Percent,[18],91.04%
same,Growth Percent,[19],117.5%
same,Growth Percent,[20],119.9%
same,Growth Percent,[21],111%
same,Growth Percent,[22],95.07%
same,Growth Percent,[23],119.3%
same,Growth Percent,[24],82.36%
same,Growth Percent,[25],80.32%
same,Growth Percent,[26],84.68%
same,Growth Percent,[27],103.6%
same,Growth Percent,[28],120.5%
same,Growth Percent,[29],120%
same,Growth Percent,[30],80.61%
same,Growth Percent,[31],91.47%
same,Growth Percent,[32],84.78%
same,Growth Percent,[33],109.2%
same,Growth Percent,[34],93.34%
same,Growth Percent,[35],92.23%
same,Growth Percent,[36],106.2%
same,Growth Percent,[37],117.8%
same,Growth Percent,[38],124.1%
same,Growth Percent,[39],96.95%
same,Growth Percent,[40],109.4%
same,Growth Percent,[41],95.24%
same,Growth Percent,[42],104.3%
same,Growth Percent,[43],105.7%
same,Growth Percent,[44],88.14%
same,Growth Percent,[45],108.9%
same,Growth Percent,[46],113.3%
same,Growth Percent,[47],105.8%
same,Growth Percent,[48],115%
same,Growth Percent,[49],94.89%
same,Growth Percent,[50],91.74%
same,Growth Percent,[51],116.2%
same,Growth Percent,[52],125.4%
same,Growth Percent,[53],102.4%
same,Growth Percent,[54],85.7%
same,Growth Percent,[55],126.4%
same,Growth Percent,[56],83.16%
same,Growth Percent,[57],108.7%
